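Assay format: 96-well plates, 48-hour exposure. TGI denotes the concentration required for complete inhibition of growth.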

The source of these data is PubChem BioAssay (NCI).

Some test systems named below: SNB-19 CNS; NCI-H23 lung; COLO 205 colon; RPMI-8226 leukemia; BT-549 breast; HL-60(TB) leukemia; ACHN renal; CCRF-CEM leukemia; MALME-3M melanoma; MCF7 breast.
Assay in all cases: inhibition of tumour cell growth, NCI panel, 48 h

Take `N#Cc1c(-c2ccccc2)cc(-c2ccc(Cl)cc2)[nH]c1=S`: the TGI with SNB-19 CNS was over 100 µM; with NCI-H23 lung, 38.2 µM; in the assay on COLO 205 colon, 71.1 µM; in the assay on RPMI-8226 leukemia, 80.2 µM; with BT-549 breast, over 100 µM; with HL-60(TB) leukemia, over 100 µM. Moreover, the TGI with ACHN renal was over 100 µM; in the assay on CCRF-CEM leukemia it was 86 µM; with MALME-3M melanoma, over 100 µM; with MCF7 breast, 53.1 µM.
For `[O-]/[N+](=C\c1ccccc1OC(=S)S)c1ccc(Cl)cc1`, the TGI was over 100 µM in the assay on SNB-19 CNS; over 100 µM in the assay with NCI-H23 lung; 26.7 µM in the assay on COLO 205 colon; over 100 µM in the assay with RPMI-8226 leukemia; over 100 µM in the assay on BT-549 breast; 45 µM in the assay on HL-60(TB) leukemia. In addition, the TGI in the assay with ACHN renal is over 100 µM; with CCRF-CEM leukemia it was over 100 µM; in the assay with MALME-3M melanoma, over 100 µM; with MCF7 breast it was 64.8 µM.
As to `CCOC(=O)/C=C(\C(=O)OCC)n1ccc(=O)n(Cc2cn(COCCOC(C)=O)nn2)c1=O`, the TGI in the assay with SNB-19 CNS is over 89.5 µM; with NCI-H23 lung it was 32.6 µM; with COLO 205 colon it was 24.2 µM; in the assay on RPMI-8226 leukemia it was 55.6 µM; with BT-549 breast it was 33.2 µM; with HL-60(TB) leukemia, 41.3 µM. Moreover, the TGI in the assay with ACHN renal was found to be 17.3 µM; in the assay on CCRF-CEM leukemia, 11.9 µM; with MALME-3M melanoma, 30.6 µM; in the assay with MCF7 breast it was 35.1 µM.
For `COC1=C(C)C(=O)c2c(c(COC(N)=O)c3n2CC(OC(C)=O)C3OC(C)=O)C1=O` (centres undefined), the TGI with SNB-19 CNS came out at 2.09 µM; in the assay on NCI-H23 lung, 0.25 µM; with COLO 205 colon it was 0.314 µM; in the assay with RPMI-8226 leukemia, 1.36 µM; in the assay on BT-549 breast, 1.21 µM; with HL-60(TB) leukemia, 0.202 µM. The TGI in the assay on ACHN renal was found to be 1.03 µM; in the assay with CCRF-CEM leukemia, 13.8 µM; in the assay on MALME-3M melanoma it was 0.156 µM; with MCF7 breast it was 1.23 µM.
Consider `O=C(N/N=C/c1ccc(Br)cc1)N/N=C/c1ccc(Br)cc1`, for which the TGI in the assay on SNB-19 CNS is 16.6 µM; in the assay on NCI-H23 lung, over 100 µM; in the assay with COLO 205 colon, over 100 µM; in the assay with RPMI-8226 leukemia, 40.1 µM; in the assay with BT-549 breast it was 52.9 µM; with HL-60(TB) leukemia, 31.1 µM. Moreover, the TGI in the assay on ACHN renal is 20.8 µM; in the assay with CCRF-CEM leukemia, 31 µM; in the assay on MALME-3M melanoma it was 15.6 µM; with MCF7 breast it was over 100 µM.
As to `COCCOCCOC1=CC(=O)c2c(O)ccc(O)c2C1=O`, the TGI was determined as 3.28 µM in the assay with SNB-19 CNS; 3.23 µM in the assay with NCI-H23 lung; 0.883 µM in the assay on COLO 205 colon; 4.26 µM in the assay on RPMI-8226 leukemia; 3.2 µM in the assay on BT-549 breast; 2.52 µM in the assay on HL-60(TB) leukemia. Moreover, the TGI came out at 2.99 µM in the assay with ACHN renal, 4.48 µM in the assay with CCRF-CEM leukemia, 0.399 µM with MALME-3M melanoma and 2.88 µM in the assay on MCF7 breast.
As to `COc1cc(NC(C)=O)ccc1C(=O)NN1C(=O)/C(=C/c2ccco2)N=C1c1ccccc1`, the TGI in the assay with SNB-19 CNS was over 50 µM; in the assay on NCI-H23 lung it was over 50 µM; in the assay on COLO 205 colon it was over 50 µM; in the assay on RPMI-8226 leukemia, 31.8 µM; in the assay on BT-549 breast, over 50 µM; in the assay with HL-60(TB) leukemia, over 50 µM. Also, the TGI is over 50 µM in the assay with ACHN renal, 31.1 µM in the assay with CCRF-CEM leukemia, over 50 µM in the assay with MALME-3M melanoma and over 50 µM in the assay on MCF7 breast.
For the compound `COc1ccc(-c2cc(-c3ccccc3)[nH]c(=S)c2C#N)cc1`, the TGI in the assay on SNB-19 CNS was over 100 µM; with NCI-H23 lung, 52.3 µM; in the assay on RPMI-8226 leukemia, 51.7 µM; with BT-549 breast, over 100 µM; with HL-60(TB) leukemia, over 100 µM; with ACHN renal, over 100 µM. Besides, the TGI in the assay on CCRF-CEM leukemia, with MALME-3M melanoma and in the assay with MCF7 breast was over 100 µM throughout.
As for `COC(=O)c1cc(C#N)[nH]c1-c1cc(Br)cs1`, the TGI was determined as 37.3 µM with SNB-19 CNS; 25.7 µM in the assay on NCI-H23 lung; 35.6 µM with COLO 205 colon; 51.2 µM in the assay on RPMI-8226 leukemia; 35.1 µM with BT-549 breast; 38.5 µM with HL-60(TB) leukemia. Also, the TGI came to 61.9 µM in the assay with ACHN renal, 39.3 µM with CCRF-CEM leukemia, 34.9 µM in the assay with MALME-3M melanoma and 33.7 µM in the assay on MCF7 breast.
Consider `O=c1[nH]nc(Cc2ccccc2)n1/N=C/c1ccncc1`, for which the TGI in the assay with SNB-19 CNS, with NCI-H23 lung, in the assay on COLO 205 colon, in the assay with RPMI-8226 leukemia, in the assay on BT-549 breast and in the assay with HL-60(TB) leukemia was over 100 µM throughout. The TGI with ACHN renal, with CCRF-CEM leukemia, with MALME-3M melanoma and in the assay with MCF7 breast was over 100 µM throughout.
On to `COc1ccc(CC2COc3cc(O)cc(O)c3C2=O)cc1O` (centres undefined), for which the TGI in the assay on SNB-19 CNS is over 100 µM; with NCI-H23 lung, over 100 µM; in the assay on COLO 205 colon, 43.8 µM; in the assay with RPMI-8226 leukemia it was 28.5 µM; in the assay on BT-549 breast, over 100 µM; in the assay on HL-60(TB) leukemia, over 100 µM. Moreover, the TGI in the assay on ACHN renal, in the assay with CCRF-CEM leukemia, with MALME-3M melanoma and with MCF7 breast was over 100 µM each time.
As for `O=c1cc(N2CCCC2)[nH]c(=O)n1-c1ccccc1`, the TGI with SNB-19 CNS, with NCI-H23 lung, with COLO 205 colon, with RPMI-8226 leukemia, in the assay with BT-549 breast and with HL-60(TB) leukemia was over 100 µM throughout. The TGI with ACHN renal, in the assay on CCRF-CEM leukemia, with MALME-3M melanoma and in the assay on MCF7 breast was over 100 µM each time.
On to `CCOC(=O)C#Cc1ccccc1`, for which the TGI was over 100 µM in the assay on SNB-19 CNS; 34.7 µM in the assay on NCI-H23 lung; 25.9 µM in the assay on COLO 205 colon; 35.2 µM in the assay on RPMI-8226 leukemia; 79.5 µM with BT-549 breast; 36.5 µM in the assay on HL-60(TB) leukemia. Besides, the TGI in the assay with ACHN renal is over 100 µM; in the assay on CCRF-CEM leukemia it was 12.4 µM; with MALME-3M melanoma, 33.2 µM; with MCF7 breast it was 75.2 µM.
